In test [1] the target is T1, recombinant honeybee (Apis mellifera) silk protein AmelF3, unmodified, SEQ ID NO: 39 (Apis mellifera, UniProt A0ACM8QI31).
T1 construct: sponges and films
The test can be described thus: Binding of macrocycles/chelates to AmelF3 sponges or films (colour retained after washing, UV/Vis). To be noted: qualitative; for binding to silk protein (in words): sponge or film; for Binding properties: sponge, macrocycle in excess, retention of colour after washing. How it is done:
Full length, recombinant honeybee silk proteins (AmelF3) without affinity purification tags, were produced by fermentation in Escherichia coli as described in Weisman et al. (2010). Full length, recombinant Weaver Ant/Green Ant (Oecophylla smaragdina) silk proteins (GA1, GA2, GA3, GA4) without affinity purification tags, were produced by fermentation in Escherichia coli following the same procedures as outlined in Weisman et al. (2010).
(§1) AmelF3 sponges were prepared as described in example 1. […] The colour change observed with honeybee silk indicates a change in the coordination of the iron metal centre within the haem group, producing a material with a similar coordination to red haemoglobin. The colour was not removed by extensive washing with 70% methanol, 0.1M HCl or 0.1M NaCl.
An embodiment of the composition of the present invention was formed by co-drying a solution of AmelF3 and haem b. Briefly, 2 mg haem b and 20 mg AmelF3 silk sponge was dissolved in 1 mL of HFIP overnight at room temperature. The solution was aliquoted into either a cuvette or 24-well plate and dried at room temperature. The dried film was soaked overnight in 70% methanol to make the film insoluble in water.
Alternatively, haem b was ‘leached’ into a pre-formed film. The AmelF3 material was formed as described in example 1. The silk material was soaked in a solution of haem b (0.5 mg/mL; haem b in excess) in 70% methanol solution for between 1 and 48 hours followed by washing with 70% methanol to remove any unbound haem b and dried at room temperature.
AmelF3 films with different ratios of haem b to AmelF3 were prepared by co-drying haem and AmelF3 HFIP solutions. At low haem loadings (haem:protein molar ratios of 1:1 and 1:2), a sharp Soret peak at 404 nm was observed, indicative of all the haem being coordinated (FIG. 3). As the concentration of haem b relative to the protein was increased, the Soret peak broadened and shifted to lower wavelengths indicating an increase in the amount of uncoordinated haem (FIG. 3).
(§2) The ability of sponges generated from recombinant AmelF3 to bind a range of macrocyles was tested by adding a solution of the macrocmacrocycle containing an excess of the macrocycle to be tested to the AmelF3 sponge and observing the colour of the sponge and whether the sponge retained colour after washing. The strength of macrocycle binding was assessed qualitatively by assessing the intensity of the colour retained by the sponge after washing. Strong binding to the sponge refers to the finding that the macrocycle cannot be washed out with aqueous methanol, organic solvents, 0.1 M HCl or 0.1 M NaOH.
(§3) Films generated from recombinant honeybee silk protein AmelF3 containing dicyanocobyrinic acid heptamethyl ester were prepared as described in example 3. UV/Vis spectrum were recorded for a film generated from recombinant AmelF3 containing dicyanocobyrinic acid heptamethyl ester and a solution of dicyanocobyrinic acid heptamethyl ester without AmelF3 (FIG. 8).

The subject of test [2] is materials generated from recombinant honeybee silk proteins (AmelF3 sponge). The test can be described thus: Binding of macrocycles to recombinant AmelF3 honeybee silk sponges, judged by colour retained after washing. To be noted: excess macrocycle in solution, intensity of colour retained after washing. Also noted: species or system Apis mellifera. The protocol: as §1, §2

The target of test [3] is T2, Apis mellifera AmelF3 (SEQ ID NO: 39) variant Tyr76Ala (Apis mellifera, UniProt A0ACM8QI31, Y95A).
T2 construct: sponge or film
Briefly: Binding of chelates to AmelF3 Tyr76Ala sponges or films. The conditions noted are these: sponge washed with aqueous methanol, qualitative. The protocol: Site directed mutagenesis of honeybee silk proteins was carried using methods known to the person skilled in the art. For example, to generate AmelF3 Tyr76Ala, the forward primer 5′-[…]-3′ (SEQ ID NO: 80) with the corresponding reverse primer was employed and site directed mutagenesis was carried out using Pfx 50 DNA polymerase from Invitrogen following the Pfx50 manufactures instructions. All AmelF3 mutants were expressed and purified using a similar procedure as the unmodified AmelF3 silk protein. To generate AmelF3 Tyr76His, the forward primer 5′-[…]-3′ (SEQ ID NO: 81) with the corresponding reverse primer was employed. To generate AmelF3 Ala97His, the forward primer 5′-[…]-3′ (SEQ ID NO: 82) was used.
To test whether Tyr76 was indeed the coordinating ligand, the present inventors replaced Tyr76 with an alanine using site directed mutagenesis of the AmelF3 silk gene.

Test [4] concerns AmelF3 in film. The test can be described thus: Binding of dicyanocobyrinic acid heptamethyl ester to AmelF3 film (UV/Vis). The conditions noted are these: peak shift from 370 to 360. Also on record: species or system Apis mellifera. The protocol: as §3
The target of test [5] is T3, recombinant honeybee (Apis mellifera) silk protein AmelF3, SEQ ID NO: 39, containing bound haem b (film) (Apis mellifera, UniProt A0ACM8QI31).
T3 sequence (A0ACM8QI31 20-335): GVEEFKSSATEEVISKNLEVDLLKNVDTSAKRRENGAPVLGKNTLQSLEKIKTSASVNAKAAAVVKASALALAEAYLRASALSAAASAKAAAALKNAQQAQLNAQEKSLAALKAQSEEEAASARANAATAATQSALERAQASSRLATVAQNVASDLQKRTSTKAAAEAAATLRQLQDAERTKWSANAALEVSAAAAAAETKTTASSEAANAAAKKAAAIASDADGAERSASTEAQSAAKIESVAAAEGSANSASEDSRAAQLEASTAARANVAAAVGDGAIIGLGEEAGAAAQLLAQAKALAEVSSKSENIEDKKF
Briefly: NO binding to reduced AmelF3-haem b film (UV/Vis). To be noted: NO added as diethylamine NONOate to dithionite-reduced film, 50 mM phosphate pH 7; decrease in absorbance at 420 nm, sigmoidal fit modified from Hill equation; read-out: dissociation constant. From the text:
A. UV/Vis spectra obtained when silk protein films generated from recombinant honeybee silk protein AmelF3 were bound to increasing NO concentrations. B. Ratio change of absorbance change at 420 nm as NO concentrations are increased. Either the decrease in absorbance at 420 nm or increase in absorbance at 390 nm can be used. The decrease in absorbance at 420 nm can be converted into the fraction of nitric oxide binding site occupied by NO and plotted against NO concentration, and fitted to a sigmoidal curve modified from the Hill equation with a dissociation constant of 6.7 μM and a limit of detection of ˜1 μM.
AmelF3-haem b film was used as the porphyrin-silk film. Freshly prepared sodium dithionite (100 mM) in 50 mM phosphate buffer (pH 7) were used as the reducing agent. 10-100 μL was added to a 50 mM phosphate buffer (pH 7) covering the porphyrin-silk film. Sodium persulfate was used at the oxidising agent a similar manner to sodium dithionite. […] Changes in the UV/Vis spectrum were monitored to determine redox states and measure NO binding (FIGS. 10A and 10B). […]
Exposure to increasing NO concentration caused the Soret peak to shift from 421 nm to 395 nm. From 0-7 μM, there was a linear relationship between the decrease in absorbance at 421 nm and the concentration of NO, with a limit of detection for NO of 1 μM.

Molecules are shown by their SMILES.

T2 sequence (A0ACM8QI31 entry or part of it Y95A): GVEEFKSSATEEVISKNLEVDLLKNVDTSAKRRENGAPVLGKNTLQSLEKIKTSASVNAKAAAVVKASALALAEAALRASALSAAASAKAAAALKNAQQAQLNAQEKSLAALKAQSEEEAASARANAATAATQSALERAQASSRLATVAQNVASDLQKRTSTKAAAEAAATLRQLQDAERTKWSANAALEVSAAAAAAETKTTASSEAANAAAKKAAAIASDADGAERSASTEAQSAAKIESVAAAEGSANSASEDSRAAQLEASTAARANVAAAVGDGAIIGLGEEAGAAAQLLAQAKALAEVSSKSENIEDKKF

As to `CCC1=C(C)c2cc3[nH]c(cc4[nH]c(cc5nc(cc1n2)C(C)=C5CC)c(C)c4CC)c(C)c3CC` [etioporphryin I], the “binding to silk protein (in words)” value in test [1] is recorded as “no binding is obtained”.
`C=Cc1c(C)c2cc3[nH]c(cc4nc(cc5nc(cc1[nH]2)C(C)=C5CCC(=O)OC)C(CCC(=O)OC)=C4C)c(C)c3C=C`: the Binding properties entry in test [1] was “Does not bind”.
For `COC(=O)CCC1=C(C)c2cc3[nH]c(cc4nc(cc5[nH]c(cc1n2)c(CCC(=O)OC)c5C)C(S(=O)(=O)O)=C4C)c(S(=O)(=O)O)c3C` [drawing 4], the Binding properties entry in test [2] and in test [1] was “Weak binding” throughout.
`COC(=O)CC[C@@H]1C2=NC(=C\C3=NC(=C(/C)C4=N[C@@](C)([C@@H]5[N-]/C(=C\2C)[C@](C)(CCC(=O)OC)[C@H]5CC(=O)OC)[C@@](C)(CC(=O)OC)[C@@H]4CCC(=O)OC)/[C@@](C)(CC(=O)OC)[C@@H]3CCC(=O)OC)/C1(C)C.[C-]#N.[C-]#N.[Co+3]` [Dicyanocobyrinic acid heptamethyl ester, dicyanocobyrinic acid heptamethyl ester]: the “binding to silk protein (in words)” value is recorded as “did not bind” in test [3] and “strongly blind to AmelF3” in test [1].
Turning to `C1=CC2C3=NC(=N\C4N/C(=N\C5=NC(=N\C6N/C(=N\3)c3ccccc36)/C3C=CC=CC53)c3ccccc34)/C2C=C1` (stereo not drawn) [drawing 5, Phthalocyanine], the “binding to silk protein (in words)” value in test [1] is “no binding is obtained”.
In the case of `CCC1=C(C)c2cc3[nH]c(cc4[nH]c(cc5nc(cc1n2)C(C)=C5CC)c(C)c4CC)c(C)c3CC` [drawing 2], the Binding properties result in test [1] is on record as “Does not bind”.
As for `O=S(=O)(O)c1ccc2c(c1)-c1nc-2nc2[nH]c(nc3nc(nc4[nH]c(n1)c1ccc(S(=O)(=O)O)cc41)-c1ccc(S(=O)(=O)O)cc1-3)c1ccc(S(=O)(=O)O)cc21.[Zn+2]` [Zn phthalocyanine tetrasulfonic acid, zinc phthalocyanine tetrasulfonic acid], in test [1], the “binding to silk protein (in words)” value is listed as “can bind”.
On to `C1=CC2C3=NC(=N\C4N/C(=N\C5=NC(=N\C6N/C(=N\3)c3ccccc36)/C3C=CC=CC53)c3ccccc34)/C2C=C1` (stereo not drawn) [drawing 5], for which the Binding properties result in test [2] is “Does not bind”.
`O=S(=O)(O)c1ccc2c(c1)-c1nc-2nc2[nH]c(nc3nc(nc4[nH]c(n1)c1ccc(S(=O)(=O)O)cc41)-c1ccc(S(=O)(=O)O)cc1-3)c1ccc(S(=O)(=O)O)cc21` [phthalocyanine tetrasulfonic acid]: the Binding properties entry in test [1] is “Strongly binds”.
As to `C=CC1=C(C)c2cc3[nH]c(cc4nc(cc5[nH]c(cc1n2)c(C)c5CCC(=O)O)C(CCC(=O)O)=C4C)c(C)c3C=C` [drawing 1], the Binding properties entry in test [2] and in test [1] was “Strongly binds to silk” throughout.
`COC(=O)CC[C@@H]1C2=NC(=C\C3=NC(=C(/C)C4=N[C@@](C)([C@@H]5[N-]/C(=C\2C)[C@](C)(CCC(=O)OC)[C@H]5CC(=O)OC)[C@@](C)(CC(=O)OC)[C@@H]4CCC(=O)OC)/[C@@](C)(CC(=O)OC)[C@@H]3CCC(=O)OC)/C1(C)C.[C-]#N.[C-]#N.[Co+3]` [Dicyanocobyrinic acid heptamethyl ester]: in test [4], the “binding to AmelF3 in film” value is reported as “strongly blind”.
As for `[N]=O` [NO, nitric oxide], in test [5], the Kd amounted to 6.7 µM.

These data come from patent publication US10870875B2, “Metalloprotein compositions” (Commonwealth Scientific and Industrial Research Organisation, priority 2014, dated 2020).
